The record followed here is ChEMBL document CHEMBL1201862, “PubChem BioAssay data set” (2004).

Test systems include CAKI-1; COLO 205; HCC 2998; HCT-15; K562; KM12; OVCAR-4; OVCAR-8; RPMI-8226; RXF 393; SF-295; SK-MEL-28; SNB-19; SNB-75; SR; SW-620; U-251; DU-145; MDA-MB-231.
Assay in all cases: NCI tumour cell line growth inhibition, 48 h

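A five-concentration, 48-hour dose response in 96-well plates underlies each endpoint, interpolated linearly between surrounding concentrations. Abbreviation: GI50, concentration required for 50% inhibition of growth.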 The source made the active and inactive calls. No stated cut-off is given here; in the data, active = GI50 up to about 1.1 µM and inactive = higher.

Regarding `CC1=C(C(=O)NCc2ccccc2)C(c2ccc(C3C(C(=O)NCc4ccccc4)=C(C)NC(C)=C3C(=O)NCc3ccccc3)cc2)C(C(=O)NCc2ccccc2)=C(C)N1`, the GI50 was 14 µM (inactive) in the assay with CAKI-1; 7.57 µM (inactive) in the assay with COLO 205; 17.1 µM (inactive) in the assay with HCC 2998; 16.1 µM with HCT-15; 5.93 µM (inactive) with K562; 11.4 µM (inactive) in the assay with KM12. The GI50 is 15.2 µM (inactive) with OVCAR-4; 7.03 µM (inactive) with OVCAR-8; 6.65 µM (inactive) with RPMI-8226; 16.6 µM (inactive) in the assay on RXF 393; 17.9 µM (inactive) in the assay on SF-295; 11.5 µM (inactive) with SK-MEL-28. Besides, the GI50 in the assay with SNB-19 was 15.6 µM (inactive); in the assay on SNB-75 it was > 10 µM (inactive); in the assay with SR, 2.3 µM (inactive); in the assay with SW-620 it was 10.2 µM (inactive); in the assay on U-251 it was 3.96 µM (inactive).
Turning to `c1ccc(C(NC2CCCCC2NCCNC2CCCCC2NC(c2ccccc2)(c2ccccc2)c2ccccc2)(c2ccccc2)c2ccccc2)cc1` (centres undefined), the GI50 is 64.4 µM (inactive) with CAKI-1; > 100 µM (inactive) in the assay on COLO 205; 96.6 µM (inactive) in the assay on DU-145; > 10 µM (inactive) in the assay on HCC 2998; > 100 µM in the assay on HCT-15; 44.5 µM (inactive) in the assay on K562. The GI50 in the assay with KM12 was 57.1 µM (inactive); with MDA-MB-231, > 100 µM (inactive); with OVCAR-4 it was 26.6 µM (inactive); in the assay with OVCAR-8, 29.9 µM (inactive); with RPMI-8226 it was 7.8 µM (inactive); in the assay with SF-295, > 100 µM (inactive). Moreover, the GI50 is > 100 µM (inactive) in the assay with SK-MEL-28; 74.6 µM (inactive) with SNB-19; 81.7 µM (inactive) in the assay with SR; 22.6 µM (inactive) with SW-620; 13.9 µM (inactive) with U-251.
On to `C=C(C=O)[C@@H]1C2OC(=O)C(=C)[C@@H]2CC(O)[C@@]1(C)CC` (some centres undefined), for which the GI50 in the assay with CAKI-1 was 9.38 µM (inactive); in the assay with COLO 205, 5.66 µM (inactive); in the assay on HCC 2998, 16.6 µM (inactive); with HCT-15, 6.22 µM; with K562, 3.27 µM (inactive); in the assay on KM12, 13.1 µM (inactive). Besides, the GI50 with OVCAR-4 was 11.5 µM (inactive); in the assay with OVCAR-8, 4.37 µM (inactive); with RPMI-8226, 2.93 µM (inactive); with RXF 393 it was 2.11 µM (inactive); with SF-295, 22.4 µM (inactive); in the assay with SK-MEL-28, 3.83 µM (inactive). Moreover, the GI50 in the assay with SNB-19 is 45.2 µM (inactive); in the assay on SNB-75, > 100 µM (inactive); in the assay with SR, 3.4 µM (inactive); with SW-620, 3.16 µM (inactive); in the assay on U-251, 11.7 µM (inactive).
With `O=c1ccn(Cc2ccccc2CCl)c(=O)[nH]1`, the GI50 with CAKI-1 is 25 µM (inactive); in the assay with COLO 205 it was 27.2 µM (inactive); in the assay with DU-145, 32.4 µM (inactive); in the assay with HCC 2998, 22.7 µM (inactive); with HCT-15, 18.4 µM; in the assay on K562, 34.8 µM (inactive). Also, the GI50 is 26.5 µM (inactive) in the assay with KM12; 69.7 µM (inactive) in the assay on OVCAR-4; 25.9 µM (inactive) with OVCAR-8; 24 µM (inactive) in the assay with RXF 393; 23.3 µM (inactive) in the assay on SF-295; 33.8 µM (inactive) in the assay with SK-MEL-28. Moreover, the GI50 in the assay with SNB-19 was 33.3 µM (inactive); with SNB-75 it was 45.2 µM (inactive); in the assay on SR it was 27.7 µM (inactive); in the assay on SW-620 it was 35.5 µM (inactive); in the assay with U-251 it was 29.7 µM (inactive).
Regarding `CC(C)=NN/C=N\C(C#N)=C(/N)C#N`, the GI50 was > 100 µM (inactive) in the assay with CAKI-1; > 100 µM (inactive) in the assay on COLO 205; > 100 µM (inactive) with DU-145; 0.262 µM (active) in the assay with HCC 2998; > 100 µM with HCT-15; > 100 µM (inactive) in the assay on K562. Besides, the GI50 with OVCAR-4, with OVCAR-8, in the assay with RPMI-8226, in the assay on RXF 393, in the assay on SF-295 and with SK-MEL-28 was > 100 µM (inactive) in each case. Further, the GI50 in the assay with SNB-19 is > 100 µM (inactive); in the assay on SNB-75, 0.466 µM (active); in the assay with SR, > 100 µM (inactive); in the assay on SW-620, > 100 µM (inactive); in the assay with U-251, > 100 µM (inactive).
As to `O=C1OC(c2ccccc2)(c2ccccc2)c2ccc3ccc(F)cc3c21`, the GI50 in the assay with CAKI-1 was 33.3 µM (inactive); in the assay with COLO 205, > 100 µM (inactive); in the assay with HCC 2998 it was 37.2 µM (inactive); in the assay with HCT-15, 35.5 µM; with K562, 6.28 µM (inactive); in the assay with KM12, > 100 µM (inactive). The GI50 in the assay on OVCAR-4 is > 100 µM (inactive); in the assay on OVCAR-8, > 100 µM (inactive); with RPMI-8226, > 100 µM (inactive); in the assay on RXF 393, > 100 µM (inactive); in the assay on SF-295, 13 µM (inactive); with SK-MEL-28 it was > 100 µM (inactive). Moreover, the GI50 in the assay on SNB-19 is > 100 µM (inactive); with SNB-75, 37.6 µM (inactive); in the assay on SR, 10.7 µM (inactive); in the assay with SW-620, 23.9 µM (inactive); in the assay on U-251, 77.1 µM (inactive).
Turning to `O=C(O)/C(Cl)=C(\Cl)C(=O)c1ccccc1`, the GI50 in the assay on CAKI-1 is > 100 µM (inactive); with COLO 205, > 100 µM (inactive); with HCC 2998, > 100 µM (inactive); in the assay on HCT-15, > 100 µM; in the assay with K562, > 100 µM (inactive); in the assay with KM12, > 100 µM (inactive). Moreover, the GI50 in the assay on OVCAR-4, in the assay with OVCAR-8, in the assay with RXF 393, with SF-295, in the assay with SK-MEL-28 and in the assay on SNB-19 was > 100 µM (inactive) throughout. Also, the GI50 with SNB-75, with SR, in the assay with SW-620 and in the assay on U-251 was > 100 µM (inactive) throughout.
In the case of `C=C1C2Oc3ccccc3C1N(c1ccccc1)O2` (centres undefined), the GI50 was 40.8 µM (inactive) with CAKI-1; 48.5 µM (inactive) with COLO 205; 31 µM (inactive) in the assay with HCC 2998; 20.8 µM in the assay with HCT-15; 27.4 µM (inactive) in the assay on K562; 17.9 µM (inactive) with KM12. Besides, the GI50 with OVCAR-4 is 20 µM (inactive); with OVCAR-8, 17 µM (inactive); with RPMI-8226 it was 23.7 µM (inactive); in the assay with RXF 393, 30.9 µM (inactive); in the assay on SF-295, 23.1 µM (inactive); in the assay with SK-MEL-28, 58.1 µM (inactive). Also, the GI50 was 49 µM (inactive) with SNB-19; 43.8 µM (inactive) in the assay with SNB-75; 30.5 µM (inactive) in the assay on SR; 34.8 µM (inactive) in the assay with SW-620; 27.2 µM (inactive) in the assay with U-251.
On to `CC1(C)OC[C@@H]([C@@]2(COC(c3ccccc3)(c3ccccc3)c3ccccc3)CC=CC(=O)O2)O1`, for which the GI50 was 30.6 µM (inactive) in the assay on CAKI-1; 20.1 µM (inactive) with COLO 205; 56.2 µM (inactive) in the assay with DU-145; 19 µM (inactive) with HCC 2998; 31.1 µM in the assay with HCT-15; 32.8 µM (inactive) in the assay with K562. In addition, the GI50 in the assay with KM12 was 27.9 µM (inactive); with MDA-MB-231, 41.7 µM (inactive); in the assay on OVCAR-4 it was 28.2 µM (inactive); in the assay on OVCAR-8, 33.6 µM (inactive); in the assay on RPMI-8226, 23.4 µM (inactive); with RXF 393, 24.2 µM (inactive). Moreover, the GI50 with SF-295 is 36.5 µM (inactive); in the assay with SK-MEL-28, 32 µM (inactive); in the assay with SNB-19 it was 58.3 µM (inactive); with SNB-75, 14.2 µM (inactive); in the assay with SR, 33 µM (inactive); in the assay with SW-620 it was 40.1 µM (inactive). In addition, the GI50 in the assay on U-251 is 48.9 µM (inactive).
In the case of `COc1ccc(-c2onc(-c3ccc([N+](=O)[O-])cc3)c2C2=NCCCN2)cc1`, the GI50 was > 100 µM (inactive) with CAKI-1; 43.6 µM (inactive) with COLO 205; > 100 µM (inactive) with HCC 2998; > 100 µM with HCT-15; 70.3 µM (inactive) in the assay with K562; > 100 µM (inactive) in the assay with KM12. For the same compound, the GI50 in the assay on OVCAR-4 is > 100 µM (inactive); in the assay on OVCAR-8, 81.1 µM (inactive); with RPMI-8226 it was > 100 µM (inactive); in the assay on RXF 393, 88.1 µM (inactive); in the assay on SF-295, 53.2 µM (inactive); with SK-MEL-28, 38.4 µM (inactive). The GI50 in the assay with SNB-19 was > 100 µM (inactive); in the assay on SNB-75 it was > 100 µM (inactive); with SR, 45.4 µM (inactive); in the assay on SW-620, > 100 µM (inactive); in the assay on U-251 it was > 100 µM (inactive).
Turning to `O=c1c2ccc(S(=O)(=O)c3ccc4c(=O)n5c6ccccc6nc5c5cccc3c45)c3cccc(c32)c2nc3ccccc3n12`, the GI50 with CAKI-1 was > 100 µM (inactive); with COLO 205 it was > 100 µM (inactive); in the assay with DU-145, 59.6 µM (inactive); in the assay on HCC 2998, > 100 µM (inactive); in the assay on HCT-15, 93.5 µM; in the assay on KM12, > 100 µM (inactive). Besides, the GI50 in the assay with MDA-MB-231 is 19.4 µM (inactive); in the assay with OVCAR-8, 47.9 µM (inactive); in the assay on RPMI-8226, > 100 µM (inactive); in the assay on RXF 393, 14.3 µM (inactive); with SF-295 it was 15.3 µM (inactive); with SK-MEL-28, > 100 µM (inactive). Also, the GI50 in the assay with SNB-19 was 16.6 µM (inactive); in the assay with U-251 it was 9.06 µM (inactive).
As to `CCCCCCCCCCCCCCCCNc1ccn(C2CC(OP(=O)(O)OCC3OC(n4cc(CC)c(=O)[nH]c4=O)CC3O)C(CO)O2)c(=O)n1` (centres undefined), the GI50 in the assay on CAKI-1 is 42.9 µM (inactive); in the assay with COLO 205, 26 µM (inactive); in the assay with DU-145, 31.8 µM (inactive); in the assay with HCC 2998 it was 24.5 µM (inactive); in the assay with HCT-15, 28.1 µM; in the assay with K562, 20.4 µM (inactive). The GI50 in the assay on KM12 is 15.7 µM (inactive); with MDA-MB-231, 35.2 µM (inactive); in the assay on OVCAR-4 it was > 100 µM (inactive); in the assay on OVCAR-8, 20 µM (inactive); in the assay with RPMI-8226, 17.8 µM (inactive); in the assay with RXF 393 it was 13.7 µM (inactive). Besides, the GI50 was 18.7 µM (inactive) with SF-295; 21.4 µM (inactive) in the assay on SK-MEL-28; 16 µM (inactive) in the assay on SNB-19; 23.3 µM (inactive) in the assay on SNB-75; 22.4 µM (inactive) with SR; 23.8 µM (inactive) in the assay on SW-620. Further, the GI50 in the assay on U-251 is 26.8 µM (inactive).
